{
  "source": "patent US20160101148A1",
  "about": "“TREATMENT AND PREVENTION OF BACTERIAL SKIN INFECTIONS USING ORITAVANCIN” (priority 2013, published 2016)",
  "key": {"[1]": {"system": "ABSSSI suspected or proven to be due to a gram-positive pathogen, including MRSA", "test": "SOLO I Phase 3 trial, efficacy: single dose IV oritavancin versus IV vancomycin for 7 to 10 days", "format": "in vivo, human", "details": "for Lesion Size Reduction ≧20% From Baseline / Primary efficacy endpoint response rate (cessation of spread, absence of fever, no rescue antibiotics): ECE 48 to 72 hours; for Investigator-Assessed Clinical Cure / Sustained Clinical Cure: PTE 7 to 14 days after EOT", "procedure": "The primary efficacy endpoint comprised: 1) cessation of spreading or reduction in the size of the baseline lesion, 2) absence of fever, and 3) no rescue antibiotic, at 48 to 72 hours, for the modified intent to treat population.\nThe study design was consistent with current guidelines from FDA (U.S. Food and Drug Administration. Guidance for Industry Acute Bacterial Skin and Skin Structure Infections: Developing Drugs for Treatment (DRAFT GUIDANCE). Available via Internet at the URL containing: fda.gov/downloads/Drugs/GuidanceComplianceRegulatoryInformation/Guidances/ucm071185.p df) and EMA (European Medicines Agency Committee for Medicinal Products for Human Use. Addendum to the note for guidance on evaluation of medicinal products indicated for treatment of bacterial infections (CHMP/EWP/558/95 REV 2) to address indication-specific clinical data (draft). 2012. Available via Internet at the URL containing: ema.europa.eu/docs/en_GB/document_library/Scientific_guideline/2012/07/WC500129443.pdf) and Foundation for National Institutes of Health guidance was considered for analyses (Talbot G H etl. Clin Infect Dis. 2012. 55(8):1114-1121). The protocol was approved by institutional review boards/ethics committees and all patients provided written informed consent. The study was conducted from January 2011 through October 2012 at 46 study centers in Mexico, Spain, Germany, Romania, Russia, Ukraine, Israel, India, and the United States. […] Aztreonam and metronidazole were permitted for gram-negative and anaerobic cover, respectively.\nClinical evaluations were performed at the following time points: Early Clinical Evaluation (ECE) at 48 to 72 hours after the initiation of the study drug infusion, End of Therapy (EOT) at Day 7 to Day 10 or the day the patient stopped study drug or changed to non-study drug therapy for primary ABSSSI, Day 10 Evaluation defined as 10 days after the initiation of the study drug infusion, Post Therapy Evaluation (PTE) at 7 to 14 days after the EOT visit, and Safety Follow-up at 60 days (+7 days) after the initiation of the study drug infusion. Safety data was reviewed by a data monitoring committee.\nEligible patients were to be at least 18 years of age with diagnosis of ABSSSI that was suspected or proven to be due to a gram-positive pathogen and which required at least 7 days of IV therapy. The diagnosis of ABSSSI was defined as wound infections (either traumatic or surgical in origin), cellulitis/erysipelas or major cutaneous abscess with surrounding erythema, edema, and/or induration of at least 75 cm^2. The onset of wound infections or cellulitis/erysipelas must have occurred within 7 days prior to randomization. Patients also had to present with signs and symptoms of systemic inflammation. Patients were not eligible to participate if they received systemic or topical antibacterial therapy with gram-positive activity within the preceding 14 days.\nThe primary efficacy endpoint was a composite outcome of 1) cessation of spreading or reduction in the size of the baseline lesion, 2) absence of fever, and 3) no rescue antibiotic medication at the ECE visit, for the mITT population.\nThe secondary efficacy outcomes were as follows: 1) Lesion area decrease by ≧20% from Baseline at ECE, 2) Investigator-Assessed Clinical Response at PTE, 3) Sustained Clinical Response at PTE.\nThe analyses were performed for patients who had lesion area assessments at baseline and ECE using the mITT and CE populations.\nIf a patient had clinical failure assessed beyond the PTE visit window, the patient was considered as a clinical failure. If a patient had clinical success assessed beyond the PTE visit window, a) and if the patient had clinical failure before the PTE visit, the patient was considered a clinical failure at PTE or b) if the patient had clinical success also before the PTE visit, the patient was considered a clinical success at PTE."}, "[2]": {"system": "ABSSSI caused by susceptible gram-positive bacteria, including MRSA", "test": "SOLO II Phase 3 trial, efficacy", "format": "in vivo, human", "details": "for FDA primary endpoint: Cessation of spread, absence of fever, no rescue antibiotics / ≧20% reduction of lesion area / FDA primary endpoint: Cessation of spread, absence of fever, no rescue antibiotics, number of patients / ≧20% reduction of lesion area, number of patients: ECE; for EMA primary endpoint: Investigator-assessed clinical cure / EMA primary endpoint: Investigator-assessed clinical cure, number of patients: PTE", "excerpt": "Complete results were obtained from a phase 3 clinical trial program of oritavancin (SOLO), which investigated the drug for the treatment of acute bacterial skin and skin structure infections (ABSSSI) caused by susceptible gram-positive bacteria, including methicillin-resistant Staphylococcus aureus (MRSA). SOLO I and SOLO II clinical trials were identical multicenter, double-blind, randomized clinical trials.\nIn SOLO II, all protocol-specified primary and secondary efficacy endpoints were met. […] The efficacy was similar in the overall population and in those patients with microbiologically confirmed MRSA infections."}, "[3]": {"details": "confirmed MRSA, Microbiological ITT"}, "[4]": {"details": "confirmed MRSA, Microbiological ITT, oritavancin n = 100, vancomycin n = 101"}, "[5]": {"details": "mITT, oritavancin n = 503, vancomycin n = 502"}},
  "data": [
    {"smiles": "CN[C@H](CC(C)C)C(=O)N[C@H]1C(=O)N[C@@H](CC(N)=O)C(=O)N[C@H]2C(=O)N[C@H]3C(=O)N[C@H](C(=O)N[C@H](C(=O)O)c4cc(O)cc(O)c4-c4cc3ccc4O)[C@H](O)c3ccc(c(Cl)c3)Oc3cc2cc(c3O[C@@H]2O[C@H](CO)[C@@H](O)[C@H](O)[C@H]2O[C@H]2C[C@](C)(N)[C@H](O)[C@H](C)O2)Oc2ccc(cc2Cl)[C@H]1O", "note": "[Vancomycin, vancomycin]", "values": [
      {"measurement": "Lesion Size Reduction ≧20% From Baseline", "setting": "[1]; CE", "result": 88.7, "unit": "%"},
      {"measurement": "Primary efficacy endpoint response rate (cessation of spread, absence of fever, no rescue antibiotics)", "setting": "[1]; CE", "result": 86.1, "unit": "%"},
      {"measurement": "Investigator-Assessed Clinical Cure", "setting": "[1]; CE", "result": 93.2, "unit": "%"},
      {"measurement": "Lesion Size Reduction ≧20% From Baseline", "setting": "[1]; MRSA MicroE", "result": 89.0, "unit": "%"},
      {"measurement": "Primary efficacy endpoint response rate (cessation of spread, absence of fever, no rescue antibiotics)", "setting": "[1]; MRSA MicroE", "result": 86.6, "unit": "%"},
      {"measurement": "Investigator-Assessed Clinical Cure", "setting": "[1]; MRSA MicroE", "result": 97.6, "unit": "%"},
      {"measurement": "Lesion Size Reduction ≧20% From Baseline", "setting": "[1]; MRSA MicroITT", "result": 84.0, "unit": "%"},
      {"measurement": "Primary efficacy endpoint response rate (cessation of spread, absence of fever, no rescue antibiotics)", "setting": "[1]; MRSA MicroITT", "result": 80.0, "unit": "%"},
      {"measurement": "Lesion Size Reduction ≧20% From Baseline", "setting": "[1]; MRSA MicroITT, listed as vancomycin", "result": 84.0, "unit": "%"},
      {"measurement": "Investigator-Assessed Clinical Cure", "setting": "[1]; MRSA MicroITT", "result": 83.0, "unit": "%"},
      {"measurement": "Sustained Clinical Cure", "setting": "[1]; MRSA MicroITT", "result": 69.0, "unit": "%"},
      {"measurement": "Lesion Size Reduction ≧20% From Baseline", "setting": "[1]; mITT", "result": 82.9, "unit": "%"},
      {"measurement": "Primary efficacy endpoint response rate (cessation of spread, absence of fever, no rescue antibiotics)", "setting": "[1]; mITT", "result": 78.9, "unit": "%"},
      {"measurement": "Lesion Size Reduction ≧20% From Baseline", "setting": "[1]; mITT, listed as vancomycin", "result": 82.9, "unit": "%"},
      {"measurement": "Primary efficacy endpoint response rate (cessation of spread, absence of fever, no rescue antibiotics)", "setting": "[1]; mITT, listed as vancomycin", "result": 78.9, "unit": "%"},
      {"measurement": "Investigator-Assessed Clinical Cure", "setting": "[1]; mITT", "result": 80.0, "unit": "%"},
      {"measurement": "Sustained Clinical Cure", "setting": "[1]; mITT", "result": 69.7, "unit": "%"},
      {"measurement": "Investigator-Assessed Clinical Cure", "setting": "[1]; mITT, listed as vancomycin", "result": 80.0, "unit": "%"},
      {"measurement": "Sustained Clinical Cure", "setting": "[1]; mITT, listed as vancomycin", "result": 69.7, "unit": "%"},
      {"measurement": "FDA primary endpoint: Cessation of spread, absence of fever, no rescue antibiotics", "setting": "[2]; [3]", "result": 81.2, "unit": "%"},
      {"measurement": "≧20% reduction of lesion area", "setting": "[2]; [3]", "result": 90.1, "unit": "%"},
      {"measurement": "FDA primary endpoint: Cessation of spread, absence of fever, no rescue antibiotics, number of patients", "setting": "[2]; [4]", "result": 82},
      {"measurement": "≧20% reduction of lesion area, number of patients", "setting": "[2]; [4]", "result": 91},
      {"measurement": "EMA primary endpoint: Investigator-assessed clinical cure", "setting": "[2]; [3]", "result": 85.1, "unit": "%"},
      {"measurement": "EMA primary endpoint: Investigator-assessed clinical cure, number of patients", "setting": "[2]; [4]", "result": 86},
      {"measurement": "FDA primary endpoint: Cessation of spread, absence of fever, no rescue antibiotics", "setting": "[2]; mITT", "result": 82.9, "unit": "%"},
      {"measurement": "≧20% reduction of lesion area", "setting": "[2]; mITT", "result": 85.3, "unit": "%"},
      {"measurement": "FDA primary endpoint: Cessation of spread, absence of fever, no rescue antibiotics, number of patients", "setting": "[2]; [5]", "result": 416},
      {"measurement": "≧20% reduction of lesion area, number of patients", "setting": "[2]; [5]", "result": 428},
      {"measurement": "EMA primary endpoint: Investigator-assessed clinical cure", "setting": "[2]; mITT", "result": 80.5, "unit": "%"},
      {"measurement": "EMA primary endpoint: Investigator-assessed clinical cure, number of patients", "setting": "[2]; [5]", "result": 404}
    ]}
  ]
}
